Literature values, collected in US20090012010A1, “Amino acid derivatives as calcium channel blockers” (Neuromed Phramaceuticals Ltd., priority 2007, published 2009).

Tested on: T-type calcium channels

COCC(=O)O[C@]1(CCN(C)CCCc2nc3ccccc3[nH]2)CCc2cc(F)ccc2[C@@H]1C(C)C [Mibefradil]
fold selective for T-type over L-type channels: 10-30 fold
